Here are results for seven compounds from US5599808A, “Aqueous indolocarbazole solutions” (Cephalon, Inc., priority 1995, dated 1997).

Each structure is given as a SMILES string. In brackets after ≈: the same amount, converted by molar mass.

The nature of one data set: physchem. As to conditions: organic solvent or mixture. Here is the method:
In general, a solution of the concentrate can be prepared by combining a dispersant such as polyvinylpyrrolidone C-30 and a selected organic solvent such as propylene glycol into a beaker. The mixture is continuously stirred until completely dissolved. Solid PVP or other solution components may take 1-2 hours to dissolve completely at room temperature.
An amount of an indolocarbazole, for example, staurosporine, K-252a, or any one of indolocarbazole A, B, or C (Table 1) can each be individually weighed and added to a small aliquot of the aqueous solution, resulting in a 10 mg/ml solution after the indolocarbazole completely dissolves. Alternatively, a mixture of indolocarbazoles may be combined, weighed, and added to a small aliquot of the aqueous solution resulting in a 10 mg/ml solution after the indolocarbazole completely dissolves. An indolocarbazole solution can be stirred or shaken vigorously overnight. Any undissolved indolocarbazole is removed by standard centrifugation or filtration techniques. The concentration of solubilized indolocarbazole can be determined by reversed phase HPLC using a UV detector (290 nm).
The following HPLC conditions are used to determine the concentration of an indolocarbazole:
HPLC Column: Zorbax Rx C-18 4.6×250 mm, 5 micron particle size
Prior to injection of an indolocarbazole solution, there is allowed a 10 minute equilibration time.
Fifty g of PEG-400 were added to 50 ml of water and the mixture vigorously stirred until completely dissolved. One mg of either K-252a, staurosporine or the indolocarbazoles B or C (see Table 1) were added individually to a 100 μl aliquot of the PEG-400 solution and the resulting mixture was shaken overnight. The solution was clarified by centrifugation at 1000 rpm for 10 minutes. The supernatant was saved and any residue discarded. Ten μl of the supernatant was removed, diluted with DMSO (100:1) and the concentration of dissolved K-252a determined by HPLC.
Same as example 1 except that PEG-600 was used instead of PEG-400.
Same as example 1 except that PEG-1000 was used instead of PEG-400.
Same as example 1 except that 48 ml of water was used and 2 g of benzyl alcohol was added to the PEG-400 solution.
Same as example 2 except that 48 ml of water was used and 2 g of benzyl alcohol was added to the PEG-600 solution.
Same as example 3 except that 48 ml of water was used and 2 g of benzyl alcohol was added to the PEG-1000 solution.
2.5 g of benzyl alcohol was added to 47.5 g of PEG-400 and, in a separate container, 2.5 g of Pluronic F68 was added to 47.5 ml of water. Each solution was stirred until completely dissolved, then each solution was combined and stirred until homogeneous. One mg of K-252a was added to 100 μl of the solution and the resulting mixture was shaken overnight. The solution was clarified by centrifugation at 1000 rpm for 10 minutes. Ten (10) μl of supernatant was removed, diluted with DMSO (100:1), and the concentration of dissolved K-252a determined by HPLC.
Same as example 7 except that Pluronic™ L61 was used instead of Pluronic™ F68.
Same as example 7 except that Pluronic™ L64 was used instead of Pluronic™ F68.
Same as example 7 except that Tween™ 20 was used instead of Pluronic™ F68.
Same as example 7 except that Tween™ 80 was used instead of Pluronic™ F68.
Same as example 7 except that PVP was used instead of Pluronic™ F68 and PEG-300 was used instead of PEG-400.
Same as example 12 except that PEG-400 was used instead of PEG-300 and indolocarbazoles A, B or C were each solubilized individually in addition to K-252a.
Same as example 12 except that PEG-600 was used instead of PEG-300 and indolocarbazoles A, B or C were each solubilized individually in addition to K-252
Same as example 12 except that PEG-1000 was used instead of PEG-300.
Ten (10) g of Triton X-100 was added to 38 ml of water and the mixture was stirred thoroughly.

The procedure of data set [1]:
In a flask, 10 g of PVP (k value of 17) was added to 990 grams of propylene glycol. This mixture was stirred until the PVP was completely dissolved. Two hundred fifty (250) mg of compound A (Table 1) was added to 10 ml of the above solution and the mixture was stirred until compound A was completely dissolved. This solution is called Indolocarbazole Propylene Glycol Concentrate (IPGC).
To test for the stability of an indolocarbazole in this solution, 1 ml aliquots of IPGC were removed and placed in small amber colored vials and kept at 4° C room temperature (about 25° C.), 37° C, and 60° C for 4, 7, 14 and 30 days. The sample at 4° C was kept in a refrigerator and received light when a door was opened. The sample at room temperature was placed on the laboratory bench and exposed to the fluorescent lights of the room during the day. The samples at 37° C and 60° C were kept in small incubators essentially in the dark. A 1 ml aliquot of the same IPGC was added to a clear vial and that vial was kept at 25° C in 300 foot candles of light for 4, 7, 14 and 30 days. At each interval of time, an aliquot of IPGC was removed from each vial, diluted 200 fold in DMSO and the concentration of compound A determined by reversed phase HPLC using a UV detector (290 nm).
In this example, compound A was further diluted in Indolocarbazole Diluent Solution. […]

For data set [2] the following is noted: cited from earlier work; for insolubility in water: Nakanishi et al.
The mark [3] stands for this setting: peg 400/ba/pvp/h2o, Concentration Obtained.
Setting [4] is: peg 600/ba/pvp/h2o, Concentration Obtained.
The mark [5] stands for this setting: peg 600/ba/pvp/h2o, Concentration Obtained (saturation level).
The mark [6] stands for this setting: peg 1000/ba/pvp/h2o, Concentration Obtained.
Where [7] appears, read: 50% peg 400, 50% h2o, Concentration Obtained, Example 1: 50% PEG 400, 50% H2O, target 10 mg/ml.
The mark [8] stands for this setting: 50% peg 600, 50% h2o, Concentration Obtained, Example 2: 50% PEG 600, 50% H2O, target 10 mg/ml.
Where [9] appears, read: 50% peg 1000, 50% h2o, Concentration Obtained, Example 3: 50% PEG 1000, 50% H2O, target 10 mg/ml.
The mark [10] stands for this setting: peg 400/ba/h2o, Concentration Obtained, Example 4: 50% PEG 400, 2% BA, 48% H2O, target 10 mg/ml.
The mark [11] stands for this setting: peg 600/ba/h2o, Concentration Obtained, Example 5: 50% PEG 600, 2% BA, 48% H2O, target 10 mg/ml.
[12] abbreviates: peg 600/ba/pvp/h2o, Concentration Obtained (saturation level), Example 22: 50% PEG 600, 2% BA, 10% PVP, 38% H2O, 10 mg added.
Where [13] appears, read: peg 1000/ba/h2o, Concentration Obtained, Example 6: 50% PEG 1000, 2% BA, 48% H2O, target 10 mg/ml.

Consider `COC1(CO)CC2OC1(C)n1c3ccccc3c3c4c(c5c6ccccc6n2c5c31)C(=O)NC4` (centres unmarked) [Compound A], for which the solubility (thermodynamic) in “physchem” (setting [3]) worked out at 10000 µg/mL (≈ 22.1 mM); in the data set “physchem” (setting [4]), 10000 µg/mL (≈ 22.1 mM); in the data set “physchem” (setting [5]), 40000 µg/mL (≈ 88.2 mM); in the data set “physchem” (setting [6]), 10000 µg/mL (≈ 22.1 mM). Moreover, the “Stability of Compound A in IPGC” value in data set [1] (0 min) is recorded as 100%. Moreover, the “loss of activity in IPGC” value in data set [1] (propylene glycol with pvp, 720 h) is 13.3%.

In the case of `COC(=O)C1(O)CC2OC1(C)n1c3ccccc3c3c4c(c5c6cc(O)ccc6n2c5c31)C(=O)NC4` (centres unmarked) [Compound B], the solubility (thermodynamic) turned out to be 3150 µg/mL (≈ 6.52 mM) in the data set “physchem” (setting [7]); 2680 µg/mL (≈ 5.54 mM) in the data set “physchem” (setting [8]); 4440 µg/mL (≈ 9.18 mM) in the data set “physchem” (setting [9]); 3260 µg/mL (≈ 6.74 mM) in the data set “physchem” (setting [10]); 10000 µg/mL (≈ 20.7 mM) in “physchem” (peg 400/ba/pvp/h2o, Concentration Obtained, Example 13: 47.5% PEG 400, 2.5% BA, 2.5% PVP, 47.5% H2O, target 10 mg/ml); 3590 µg/mL (≈ 7.43 mM) in the data set “physchem” (setting [11]). Also, the solubility (thermodynamic) in the data set “physchem” (peg 600/ba/pvp/h2o, Concentration Obtained (saturation level), Example 20: 47.5% PEG 600, 2.5% BA, 2.5% PVP, 47.5% H2O, 10 mg added) worked out at 10000 µg/mL (≈ 20.7 mM); in the data set “physchem” (setting [12]), 16400 µg/mL (≈ 33.9 mM); in “physchem” (peg 600/ba/pvp/h2o, Concentration Obtained, Example 14: 47.5% PEG 600, 2.5% BA, 2.5% PVP, 47.5% H2O, target 10 mg/ml), 10000 µg/mL (≈ 20.7 mM); in “physchem” (setting [13]), 5020 µg/mL (≈ 10.4 mM); in “physchem” (peg 1000/ba/pvp/h2o, Concentration Obtained, Example 19: 40% PEG 1000, 2% BA, 10% PVP, 48% H2O, target 10 mg/ml) it was 10000 µg/mL (≈ 20.7 mM).

In the case of `CC[S+]([O-])Cc1ccc2c(c1)c1c3c(c4c5ccccc5n5c4c1n2C1CC(O)(C(=O)OC)C5(C)O1)CNC3=O` (centres unmarked) [Compound C], the thermodynamic solubility in the data set “physchem” (50% peg 400, 50% h2o, Concentration Obtained) is 750 µg/mL (≈ 1.34 mM); in the data set “physchem” (50% peg 600, 50% h2o, Concentration Obtained) it was 500 µg/mL (≈ 0.897 mM); in “physchem” (50% peg 1000, 50% h2o, Concentration Obtained), 720 µg/mL (≈ 1.29 mM); in the data set “physchem” (peg 400/ba/h2o, Concentration Obtained), 1010 µg/mL (≈ 1.81 mM); in “physchem” (setting [3]), 4000 µg/mL (≈ 7.17 mM); in “physchem” (peg 600/ba/h2o, Concentration Obtained) it was 890 µg/mL (≈ 1.6 mM). The solubility (thermodynamic) in the data set “physchem” (setting [4]) was found to be 4600 µg/mL (≈ 8.25 mM); in the data set “physchem” (setting [5]) it was 4600 µg/mL (≈ 8.25 mM); in “physchem” (peg 600/ba/triton x-100/h2o, Concentration Obtained), 4630 µg/mL (≈ 8.3 mM); in the data set “physchem” (peg 600/ba/tween 80/h2o, Concentration Obtained) it was 4790 µg/mL (≈ 8.59 mM); in “physchem” (peg 1000/ba/h2o, Concentration Obtained), 800 µg/mL (≈ 1.43 mM); in the data set “physchem” (setting [6]) it was 6000 µg/mL (≈ 10.8 mM). The thermodynamic solubility in “physchem” (peg 1000/ba/pvp/h2o, Concentration Obtained (saturation level)) is 5000 µg/mL (≈ 8.97 mM).

Turning to `CC12OC(CC1(O)C(=O)O)n1c3ccccc3c3c4c(c5c6ccccc6n2c5c31)CNC4=O` (centres unmarked) [Compound K-252b], in data set [2], the “solubility in non-aqueous, toxic solvents” value (from here on “solubility in non-aqueous”) was “soluble in non-aqueous, toxic solvents”.

For the compound `O=C1NCc2c1c1c3ccccc3[nH]c1c1[nH]c3ccccc3c21` [Compound K-252c], in data set [2], the insolubility in water entry was “insolubility”; the “solubility in non-aqueous” value was “soluble in non-aqueous, toxic solvents”; the solubility in water entry was “insoluble in water”.

For the compound `C[C@@H]1O[C@@H](n2c3ccccc3c3c4c(c5c6ccccc6[nH]c5c32)CNC4=O)[C@H](O)[C@H](O)[C@H]1O` [Compound K-252d], in data set [2], the insolubility in water entry is on record as “insolubility”; the “solubility in non-aqueous” value is “soluble in non-aqueous, toxic solvents”; the solubility in water result is recorded as “insoluble in water”.

For the compound `CN[C@@H]1C[C@H]2O[C@@](C)([C@@H]1OC)n1c3ccccc3c3c4c(c5c6ccccc6n2c5c31)C(=O)NC4` [Staurosporine, staurosporine], the solubility (thermodynamic) in “physchem” (setting [7]) is 710 µg/mL (≈ 1.52 mM); in the data set “physchem” (setting [8]), 1890 µg/mL (≈ 4.05 mM); in “physchem” (setting [9]), 1650 µg/mL (≈ 3.54 mM); in “physchem” (setting [10]), 1210 µg/mL (≈ 2.59 mM); in “physchem” (setting [11]), 1890 µg/mL (≈ 4.05 mM); in the data set “physchem” (setting [12]), 8400 µg/mL (≈ 18 mM). Besides, the solubility (thermodynamic) in “physchem” (peg 600/ba/pvp/h2o, Concentration Obtained, Example 18: 50% PEG 600, 2% BA, 10% PVP, 38% H2O, target 10 mg/ml) turned out to be 8410 µg/mL (≈ 18 mM); in the data set “physchem” (peg 600/ba/triton x-100/h2o, Concentration Obtained, Example 16: 50% PEG 600, 2% BA, 10% Triton X-100, 38% H2O, target 10 mg/ml) it was 7590 µg/mL (≈ 16.3 mM); in the data set “physchem” (peg 600/ba/tween 80/h2o, Concentration Obtained, Example 17: 50% PEG 600, 2% BA, 10% Tween 80, 38% H2O, target 10 mg/ml), 4600 µg/mL (≈ 9.86 mM); in “physchem” (setting [13]) it was 1680 µg/mL (≈ 3.6 mM).

By solubility (thermodynamic) is commonly meant solubility found after equilibrating the solid with the medium.
